Test results taken from ChEMBL document CHEMBL1133831 (Bioorg Med Chem Lett, 2001).

Key:
[1] = target: T1, Muscarinic acetylcholine receptor M1 (Homo sapiens, UniProt P11229); assay: Ability to displace [3H]N-methylscopolamine from Muscarinic acetylcholine receptor M1 expressed in CHO cells.; assay type: cell-based
T1 sequence (P11229 whole entry): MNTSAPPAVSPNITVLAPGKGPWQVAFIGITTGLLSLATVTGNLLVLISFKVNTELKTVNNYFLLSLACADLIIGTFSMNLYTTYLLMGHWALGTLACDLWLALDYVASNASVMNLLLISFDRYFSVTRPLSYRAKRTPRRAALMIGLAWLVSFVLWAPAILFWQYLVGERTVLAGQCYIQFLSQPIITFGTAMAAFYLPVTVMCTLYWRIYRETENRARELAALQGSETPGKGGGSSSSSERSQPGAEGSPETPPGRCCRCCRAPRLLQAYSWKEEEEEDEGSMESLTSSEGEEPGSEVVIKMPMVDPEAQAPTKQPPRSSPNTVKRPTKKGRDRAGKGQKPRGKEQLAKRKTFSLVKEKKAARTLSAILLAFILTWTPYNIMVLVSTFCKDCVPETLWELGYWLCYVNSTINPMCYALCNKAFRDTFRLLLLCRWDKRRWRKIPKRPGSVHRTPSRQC

[2] = target: T1, Muscarinic acetylcholine receptor M1; assay: Ability to displace [3H]oxotremorine from Muscarinic acetylcholine receptor M1 expressed in CHO cells.; assay type: cell-based

Row | SMILES | IC50 [1] | IC50 [2]
1 | Clc1cc(CO/N=C/C2CN3CCC2C3)on1 (centres undefined) | 14.9 µM | 0.044 µM
2 | COc1cc(CO/N=C2\CN3CCC2C3)on1 (centres undefined) | 40.5 µM | 0.131 µM
3 | Clc1cc(CO/N=C/C2CN3CCC2CC3)on1 (centres undefined) | 23.5 µM | 0.795 µM
4 | Brc1cc(CO/N=C/C2CN3CCC2C3)on1 (centres undefined) | 17.7 µM | 0.385 µM
5 | N#Cc1cc(CO/N=C2\CN3CCC2CC3)on1 | 8.7 µM | 0.081 µM
6 | Clc1cc(CO/N=C2\CN3CCC2C3)on1 (centres undefined) | 36.3 µM | 0.023 µM
7 | Brc1cc(CO/N=C2\CN3CCC2C3)on1 (centres undefined) | 48.8 µM | 0.079 µM
8 | COc1cc(CO/N=C2\CN3CCC2CC3)on1 | 35.6 µM | 0.362 µM
9 | Brc1cc(CO/N=C/C2CN3CCC2CC3)on1 (centres undefined) | 8.4 µM | 1.22 µM
10 | Brc1cc(CO/N=C2\CN3CCC2CC3)on1 | 11.5 µM | 0.072 µM
11 | COc1cc(CO/N=C/C2CN3CCC2C3)on1 (centres undefined) | 16.7 µM | 0.287 µM
12 | COc1cc(CO/N=C/C2CN3CCC2CC3)on1 (centres undefined) | 29.5 µM | 1.64 µM
13 | N#Cc1cc(CO/N=C2\CN3CCC2C3)on1 (centres undefined) | 32.5 µM | 0.082 µM
14 | N#Cc1cc(CO/N=C/C2CN3CCC2C3)on1 (centres undefined) | 189 µM | 1.86 µM
15 | N#Cc1cc(CO/N=C/C2CN3CCC2CC3)on1 (centres undefined) | 133 µM | 0.341 µM
16 | Clc1cc(CO/N=C2\CN3CCC2CC3)on1 | 13.8 µM | 0.057 µM
17 | O=C1CCCN1CC#CCN1CCCC1 [OXOTREMORINE] | 27.1 µM | 0.0023 µM
